Test results: patent publication US9561232B2, “Low dose noribogaine for treating nicotine addiction and preventing relapse of nicotine use” (priority 2014, dated 2017)

System: opioid-dependent participants
Assay: Efficacy in opioid-dependent participants: time to resumption of OST and COWS/OOWS/SOWS withdrawal scores
Assay type: in vivo, human
Experimental: The efficacy of noribogaine in humans was evaluated in opioid-dependent participants in a randomized, placebo-controlled, double-blind trial. […] See U.S. application Ser. No. 14/214,157, filed Mar. 14, 2014 and Ser. No. 14/346,655, filed Mar. 21, 2014, which are incorporated herein by reference in their entireties.
Three cohorts of nine (9) subjects (6 administered noribogaine and 3 administered placebo in each cohort) were evaluated for tolerability, pharmacokinetics, and efficacy. Cohort 1 received a single dose of 60 mg noribogaine or placebo. Cohort 2 received a single dose of 120 mg noribogaine or placebo. Cohort 3 received a single dose of 180 mg noribogaine or placebo. […] Headaches were frequent in the placebo and 60 mg noribogaine treatment groups, but were attenuated in the 120 mg and 180 mg dose groups.
Patients were evaluated based on the Clinical Opiate Withdrawal Scale (COWS), Subjective Opiate Withdrawal Scale (SOWS), and Objective Opiate Withdrawal Scale (OOWS) scoring systems over the period of time between administration of noribogaine (or placebo) until resumption of OST. These scales are outlined in Guidelines for the Psychosocially Assisted Pharmacological Treatment of Opioid Dependence, World Health Organization, Geneva (2009), Annex 10, which is incorporated herein by reference in its entirety. The scales measure the intensity of withdrawal symptoms, based on clinical, subjective, and objective indicia.

**Q.** How did the “withdrawal symptoms (COWS, OOWS, SOWS), first six hours following dosing” value (120 mg) turn out when CC[C@H]1CC2C[C@H]3c4[nH]c5ccc(O)cc5c4CCN(C2)C13 [Noribogaine] was run?
**A.** Its value is “generally experienced fewer withdrawal symptoms than the other patients”.

**Q.** What about the “withdrawal symptoms (COWS, OOWS, SOWS), noribogaine versus placebo” value (60, 120, 180 mg, first six hours following dosing) of the same compound?
**A.** Its value is “Patients administered placebo generally experienced more withdrawal symptoms than patients who were administered noribogaine”.

**Q.** And the “average time to resumption of opioids (OST)” value (single 180 mg dose)?
**A.** The value was “still longer than untreated patients”.
